Marks after values point to notes of the source that are not given here.

The experiment concerns New Zealand Albino rabbits. Nature of the experiment: Intraocular pressure by applanation pneumatonometry after topical application to one eye. As to conditions: 0.1% (w/v) solution, 25 µl to the surface of one eye. The experiment is classed as in vivo. Here is the method: Prostaglandin F2α TRIS salt was dissolved in either distilled water or in a 5% aqueous hydroxypropyl-β-cyclodextrin solution, to provide 0.1% (w/v) solutions. Two groups of experimental New Zealand Albino rabbits, containing 6 and 8 rabbits, respectively, were treated by administering 25µℓ of each solution to the surface of one eye. The contralateral eye received vehicle as a control. Intraocular pressure (IOP) was measured by applanation pneumatonometry model (Model 3ORT, manufactured by Digilab) at the time of administration, and at intervals of 1, 2, 3, 4, and 6 hours thereafter.

On to “Prostaglandin F2α TRIS salt [Prostaglandin F2α (in aqueous)]”, for which the “CHANGES IN INTRAOCULAR PRESSURE (mmHg) AT PREDETERMINED TIMES (HR)” value by setting is: (1.0 HR after administration) -6.3* mmHg; (2.0 HR after administration) -3.0 mmHg; (3.0 HR after administration) -3.0 mmHg; (4.0 HR after administration) -1.5 mmHg; (6.0 HR after administration) 0 mmHg.

The values above are taken from EP0435682A2, “The use of inclusion complexes of prostaglandins with cyclodextrins in the treatment of ocular hypertension” (ALLERGAN, INC., priority 1989, dated 1991).
